According to publication PMC6522510 (Nature Communications, 2019):

Legend:
Assay in all cases: cells
Parameters in all cases: species or system AML cell lines (8); Secondary HTS, 10-point dose-response in triplicate, Cell Titer Glo viability, four-parameter fit EC50
CHRF288-11 = details: 72 h, read-out: CHRF288-11
ML-2 = details: Homo sapiens, ML-2, 72 h, read-out: ML-2
U937 = details: Homo sapiens, U-937, 72 h, read-out: U937
M07e = details: M-07e, 72 h, read-out: M07e
CMK = details: Homo sapiens, CMK, 72 h, read-out: CMK
MOLM-13 = details: Homo sapiens, MOLM-13, 72 h, read-out: MOLM-13
MV4-11 = details: Homo sapiens, MV4-11, 72 h, read-out: MV4-11
CMS = details: 72 h, read-out: CMS

EC50 (U937) [µM]	EC50 (MOLM-13) [µM]	EC50 (MV4-11) [µM]	SMILES	EC50 (CHRF288-11) [µM]	EC50 (ML-2) [µM]	EC50 (M07e) [µM]	EC50 (CMK) [µM]	EC50 (CMS) [µM]
> 10	> 10	> 10	CN(C)CC(=O)Nc1ccc2[nH]c(=O)c3ccccc3c2c1 [SJ000784265, PJ34]	> 10	> 10	> 10	> 10	> 10
> 10	> 10	> 10	NC(=O)C1CCCc2c1[nH]c1ccc(Cl)cc21 (centres unmarked) [SJ000784267]	> 10	> 10	> 10	> 10	> 10
3.4	> 10	> 10	Cn1cc(/C=C/C(=O)c2cccc(F)c2)cc1/C=C/C(=O)NO [SJ000784269, MC1568]	4.9	4.3	0.456	> 10	> 10
> 10	> 10	> 10	Clc1ccc(-c2csc(NN=C3CCCC3)n2)cc1 [SJ000784270, CPTH2]	> 10	> 10	> 10	> 10	> 10
1.6	0.26	0.72	Cn1cccc1/C=C1\C(=O)NC(=O)c2ccccc21 [SJ000784271, BYK 204165]	5.5	> 10	0.63	> 10	2.2
6.7	3.1	> 10	CC(C)C(=O)SCCCCCCC(=O)Nc1nc(-c2ccccc2)cs1 [SJ000784276, NCH 51]	3.6	5.6	3.6	> 10	4.5
> 10	2.5	> 10	NC(=O)c1cccc2ncc(-c3ccc(Cl)cc3)nc12 [SJ000784278, PARP INHIBITOR XII]	> 10	> 10	> 10	> 10	> 10
> 10	> 10	> 10	O=C(O)C(Cc1c[nH]c2ccccc12)N1C(=O)c2ccccc2C1=O (centres unmarked) [SJ000784279, RG108]	> 10	> 10	> 10	> 10	> 10
> 10	> 10	> 10	COC(=O)/C=C/C(=O)OC [SJ000784308, BG-12]	> 10	> 10	> 10	> 10	> 10
0.6	2.1	0.001	COc1ccc(-c2cc3c(C)nc(N)nc3n([C@H]3CC[C@H](OCCO)CC3)c2=O)cn1 [SJ000784313, PF-04691502]	4.3	0.23	> 10	1.4	0.34
> 10	0.45	> 10	Nc1nc(=O)n([C@H]2C[C@H](O)[C@@H](CO)O2)cc1F [SJ000785889, 5-FLUORODEOXYCYTIDINE]	3.17	0.0089	> 10	0.14	> 10

SMILES	EC50 (U937) [µM]	EC50 (MOLM-13) [µM]	EC50 (MV4-11) [µM]	EC50 (CHRF288-11) [µM]	EC50 (ML-2) [µM]	EC50 (M07e) [µM]	EC50 (CMK) [µM]	EC50 (CMS) [µM]
CN(C)CCCNc1c2ccccc2nc2c1[nH]c1ccccc12 [SJ000784272, SYUIQ-5]	0.21	1.6	> 10	1.6	1.8	0.54	> 10	0.37
CN[C@@H]1C[C@H]2O[C@@](C)([C@@H]1OC)n1c3ccccc3c3c4c(c5c6ccccc6n2c5c31)C(=O)N[C@H]4O [SJ000784325, 7-HYDROXYSTAUROSPORINE]	0.26	0.065	0.19	0.35	0.25	> 10	0.23	0.41
